Measurements taken from ChEMBL document CHEMBL1201862, “PubChem BioAssay data set” (2004).
Activity calls are given as the source filed them.

What was measured:
[1] = molecular target: 72 kDa type IV collagenase (Homo sapiens, UniProt P08253); assay: Dose Response validation of uHTS RPN11 inhibitor hits using a MMP-2 Fluorescence assay.; assay type: functional
cells [2] = assay type: functional, cell-based
[3] = ADAM10 inhibitors, peptide cleavage, dose response, biochemical, QFRET (AID 743254);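 further: ADAM10 enzyme with the DM2 quenched FRET peptide as substrate; EDANS fluorescence gain as the protease cuts the substrate; inhibitor potency against ADAM10 proteolytic activity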
Prothrombin = Prothrombin (Bos taurus, UniProt P00735); assay: thrombin inhibition, dose response, biochemical, fluorescence polarization, uHTS hits (AID 602369); assay type: functional
cells [4] = assay type: functional, cell-based; remark: listed apart in the source
[5] = molecular target: 26S proteasome non-ATPase regulatory subunit 14 (Homo sapiens, UniProt O00487); assay: inhibition of proteasome subunit RPN11 – biochemical, fluorescence polarization, uHTS hits, confirmation (AID 602368); assay type: functional
[6] = molecular target: T1, Disintegrin and metalloproteinase domain-containing protein 17 (Homo sapiens, UniProt P78536); assay: ADAM17 protease inhibitors, dose response, counter-screen for ADAM10 exosite inhibitor project, biochemical, quenched FRET substrate (AID 743253)
[7] = molecular target: T1, Disintegrin and metalloproteinase domain-containing protein 17; assay: exosite inhibitors of ADAM17, dose response, biochemical (AID 743260)
[8] = RKO cell viability reduction, dose response, CellTiter-Glo luminescence (AID 1117322); assay type: functional
[9] = cytotoxicity toward Colo320 cells – cell-based, CellTiter-Glo luminescence, IC50, dose response (AID 1117334); assay type: functional; settings: COLO 320
[10] = SNU-C1 cell viability reduction, dose response, CellTiter-Glo luminescence (AID 1117323); assay type: functional, cell-based
[11] = HCT116 cell viability decrease, GSK3B pretreatment – CellTiter-Glo, IC50, dose response (AID 1117339); assay type: functional; settings: HCT-116
[12] = cytotoxicity toward HCT116 cells – cell-based, CellTiter-Glo luminescence, IC50, dose response (AID 1117332); assay type: functional; settings: HCT-116
[13] = Concentration-dependent survival of SW480 colon cancer line, luminescence detection with CellTiter-Glo, half-maximal inhibitory concentration (AID 1117338); assay type: functional
[14] = cytotoxicity toward HT-29 cells – cell-based, CellTiter-Glo luminescence, IC50, dose response (AID 1117330); assay type: functional
[15] = CellTiter-Glo luminescent dose response of DLD-1 viability loss (AID 1117352); assay type: functional
Nonstructural protein 1 = Nonstructural protein 1 (Influenza A virus, UniProt Q194T2); assay type: functional, Influenza A virus (A/California/07/2009(H1N1))
[16] = C. albicans growth with fluconazole, confirmation, fluorescence, retest (AID 2467); assay type: functional, cell-based
[17] = molecular target: T2, Mannose-6-phosphate isomerase (Homo sapiens, UniProt P34949); assay: inhibitors of human PMI, primary screen, biochemical, fluorescence intensity, coupled assay (AID 1209)
T2 sequence (P34949 whole entry): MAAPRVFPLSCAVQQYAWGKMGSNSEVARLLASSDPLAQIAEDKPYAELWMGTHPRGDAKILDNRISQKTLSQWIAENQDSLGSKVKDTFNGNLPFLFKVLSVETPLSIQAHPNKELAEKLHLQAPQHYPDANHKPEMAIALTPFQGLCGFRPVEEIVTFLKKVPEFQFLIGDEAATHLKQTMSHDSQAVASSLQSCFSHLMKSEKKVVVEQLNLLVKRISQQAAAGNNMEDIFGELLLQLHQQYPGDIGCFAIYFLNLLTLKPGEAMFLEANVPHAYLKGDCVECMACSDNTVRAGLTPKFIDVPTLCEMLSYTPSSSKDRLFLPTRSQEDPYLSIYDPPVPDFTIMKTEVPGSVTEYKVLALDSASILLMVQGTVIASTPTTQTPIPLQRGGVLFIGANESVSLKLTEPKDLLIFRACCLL

[18] = NIH-3T3 fibroblast cytotoxicity, dose response, cytotoxicity control, cell-based, fluorescence, Alamar Blue, secondary assay (AID 2327); assay type: functional;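 further: NIH-3T3 mouse fibroblasts cultured with fluconazole at 8 µg/mL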
fMet-Leu-Phe receptor = molecular target: T3, fMet-Leu-Phe receptor (Homo sapiens, UniProt P21462); assay: FPR ligands, dose response (AID 519); assay type: functional
T3 sequence (P21462 whole entry): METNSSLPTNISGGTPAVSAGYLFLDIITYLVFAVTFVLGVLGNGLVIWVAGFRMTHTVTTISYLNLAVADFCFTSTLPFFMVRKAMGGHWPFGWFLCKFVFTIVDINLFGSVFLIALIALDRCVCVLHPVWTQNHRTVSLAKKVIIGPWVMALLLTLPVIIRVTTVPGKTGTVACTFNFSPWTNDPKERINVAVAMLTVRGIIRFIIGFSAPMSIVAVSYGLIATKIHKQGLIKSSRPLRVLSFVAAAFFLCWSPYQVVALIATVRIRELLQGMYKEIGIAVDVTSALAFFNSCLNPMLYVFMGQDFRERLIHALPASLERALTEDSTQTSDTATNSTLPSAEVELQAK

Protein RecA = molecular target: T4, Protein RecA (Mycobacterium tuberculosis, UniProt P9WHJ3); assay: Fluorescence Cell-Free Homogeneous Dose Retest to Identify Inhibitors of RecA-Intein Splicing Activity. [Related pubchem assays (depositor defined):AID2097, AID2223, AID489010, AID492950]; assay type: functional
T4 sequence (P9WHJ3 whole entry): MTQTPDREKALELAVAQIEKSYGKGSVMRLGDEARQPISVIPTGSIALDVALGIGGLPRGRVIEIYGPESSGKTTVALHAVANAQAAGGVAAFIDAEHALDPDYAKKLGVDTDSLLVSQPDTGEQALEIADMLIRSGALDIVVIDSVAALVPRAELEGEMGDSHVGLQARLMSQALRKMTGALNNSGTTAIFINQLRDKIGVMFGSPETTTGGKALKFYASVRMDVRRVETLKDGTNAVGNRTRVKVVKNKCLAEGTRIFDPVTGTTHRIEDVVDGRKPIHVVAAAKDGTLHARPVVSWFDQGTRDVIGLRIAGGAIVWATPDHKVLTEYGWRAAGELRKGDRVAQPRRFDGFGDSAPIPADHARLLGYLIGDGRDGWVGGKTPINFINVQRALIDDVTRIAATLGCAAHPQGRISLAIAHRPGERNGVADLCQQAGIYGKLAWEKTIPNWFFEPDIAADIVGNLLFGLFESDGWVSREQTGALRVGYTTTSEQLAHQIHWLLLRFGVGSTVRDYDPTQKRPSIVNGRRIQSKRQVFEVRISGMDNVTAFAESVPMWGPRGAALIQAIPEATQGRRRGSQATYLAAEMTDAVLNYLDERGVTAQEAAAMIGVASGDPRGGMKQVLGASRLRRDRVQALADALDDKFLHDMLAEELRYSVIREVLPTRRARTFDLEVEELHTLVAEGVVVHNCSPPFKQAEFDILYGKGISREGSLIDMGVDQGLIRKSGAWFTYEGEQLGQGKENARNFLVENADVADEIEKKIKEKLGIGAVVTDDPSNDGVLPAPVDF

[19] = molecular target: T5, Fructose-bisphosphate aldolase (Mycobacterium tuberculosis, UniProt P9WQA3); assay: Fluorescence-based biochemical high throughput dose response assay for inhibitors of the fructose-bisphosphate aldolase (FBA) of M. tuberculosis.; assay type: functional
T5 sequence (P9WQA3 whole entry): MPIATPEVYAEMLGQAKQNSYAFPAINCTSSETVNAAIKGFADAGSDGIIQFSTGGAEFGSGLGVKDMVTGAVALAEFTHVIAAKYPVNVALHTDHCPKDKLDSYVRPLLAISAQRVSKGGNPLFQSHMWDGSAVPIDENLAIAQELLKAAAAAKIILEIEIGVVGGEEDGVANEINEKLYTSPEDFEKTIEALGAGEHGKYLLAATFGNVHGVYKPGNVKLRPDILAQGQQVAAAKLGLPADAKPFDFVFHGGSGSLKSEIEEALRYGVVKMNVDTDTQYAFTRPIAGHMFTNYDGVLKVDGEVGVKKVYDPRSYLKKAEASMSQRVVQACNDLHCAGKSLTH

[20] = molecular target: T6, Replicative DNA helicase DnaB (Mycobacterium tuberculosis, UniProt P9WMR3); assay: DnaB intein splicing inhibitors, dose response, biochemical, cell-free fluorescence (AID 449749); assay type: functional
T6 sequence (P9WMR3 whole entry): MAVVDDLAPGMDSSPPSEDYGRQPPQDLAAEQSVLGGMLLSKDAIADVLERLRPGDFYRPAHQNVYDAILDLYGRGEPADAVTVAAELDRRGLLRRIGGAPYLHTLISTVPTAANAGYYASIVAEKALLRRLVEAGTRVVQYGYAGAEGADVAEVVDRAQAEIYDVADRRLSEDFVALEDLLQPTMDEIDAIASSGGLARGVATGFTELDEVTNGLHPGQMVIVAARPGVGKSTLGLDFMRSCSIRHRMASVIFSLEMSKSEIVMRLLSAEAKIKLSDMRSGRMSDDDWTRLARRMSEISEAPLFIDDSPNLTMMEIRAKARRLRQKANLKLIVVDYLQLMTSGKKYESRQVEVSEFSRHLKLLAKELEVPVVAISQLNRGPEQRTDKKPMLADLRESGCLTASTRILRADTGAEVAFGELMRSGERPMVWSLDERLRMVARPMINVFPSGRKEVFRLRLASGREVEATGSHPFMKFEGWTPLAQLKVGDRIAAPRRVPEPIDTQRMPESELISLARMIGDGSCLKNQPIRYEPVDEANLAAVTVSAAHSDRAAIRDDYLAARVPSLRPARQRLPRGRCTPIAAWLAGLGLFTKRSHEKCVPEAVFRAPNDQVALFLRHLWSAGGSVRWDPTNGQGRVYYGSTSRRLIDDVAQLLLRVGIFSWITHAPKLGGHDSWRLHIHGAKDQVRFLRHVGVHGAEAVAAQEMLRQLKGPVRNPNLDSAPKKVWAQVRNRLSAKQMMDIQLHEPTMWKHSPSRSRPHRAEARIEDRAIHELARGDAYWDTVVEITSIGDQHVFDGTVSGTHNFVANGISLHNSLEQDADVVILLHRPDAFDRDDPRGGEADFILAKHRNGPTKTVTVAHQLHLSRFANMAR

Mucolipin-3 = molecular target: T7, Mucolipin-3 (Homo sapiens, UniProt Q8TDD5); assay: Dose response cell-based high-throughput screening assay for agonists of the transient receptor potential channel ML3 (TRPML3). [Related pubchem assays: 1526, 1424, 1448 ]; assay type: functional
T7 sequence (Q8TDD5 whole entry): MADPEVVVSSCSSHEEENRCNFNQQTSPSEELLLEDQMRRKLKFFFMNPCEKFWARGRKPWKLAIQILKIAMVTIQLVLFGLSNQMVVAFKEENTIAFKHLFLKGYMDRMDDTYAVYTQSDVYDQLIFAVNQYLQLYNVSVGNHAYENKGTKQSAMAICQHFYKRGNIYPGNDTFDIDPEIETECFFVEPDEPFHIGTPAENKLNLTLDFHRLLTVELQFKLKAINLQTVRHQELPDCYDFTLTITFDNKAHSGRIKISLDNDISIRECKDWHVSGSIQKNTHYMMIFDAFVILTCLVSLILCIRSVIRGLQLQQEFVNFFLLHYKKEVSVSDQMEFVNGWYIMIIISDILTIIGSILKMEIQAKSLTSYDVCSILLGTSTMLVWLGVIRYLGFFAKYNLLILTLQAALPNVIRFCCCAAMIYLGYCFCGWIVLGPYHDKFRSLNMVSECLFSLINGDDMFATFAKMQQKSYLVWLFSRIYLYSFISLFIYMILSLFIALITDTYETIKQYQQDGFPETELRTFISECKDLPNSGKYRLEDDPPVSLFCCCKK

Ion channel NompC = Ion channel NompC (Danio rerio, UniProt Q7T1G6); assay: Fluorescence counterscreen assay for TRPML3 agonists: dose response cell-based high-throughput screening assay to identify agonists of the transient receptor potential channel N1 (TRPN1). [Related pubchem assays: 1526, 1424, 1448 ]; assay type: functional
[21] = molecular target: T2, Mannose-6-phosphate isomerase; assay: human PMI inhibitors, high substrate, primary screen, biochemical, fluorescence intensity, high mannose 6-phosphate (AID 1220)

T1 sequence (P78536 whole entry, the tested form may be a part): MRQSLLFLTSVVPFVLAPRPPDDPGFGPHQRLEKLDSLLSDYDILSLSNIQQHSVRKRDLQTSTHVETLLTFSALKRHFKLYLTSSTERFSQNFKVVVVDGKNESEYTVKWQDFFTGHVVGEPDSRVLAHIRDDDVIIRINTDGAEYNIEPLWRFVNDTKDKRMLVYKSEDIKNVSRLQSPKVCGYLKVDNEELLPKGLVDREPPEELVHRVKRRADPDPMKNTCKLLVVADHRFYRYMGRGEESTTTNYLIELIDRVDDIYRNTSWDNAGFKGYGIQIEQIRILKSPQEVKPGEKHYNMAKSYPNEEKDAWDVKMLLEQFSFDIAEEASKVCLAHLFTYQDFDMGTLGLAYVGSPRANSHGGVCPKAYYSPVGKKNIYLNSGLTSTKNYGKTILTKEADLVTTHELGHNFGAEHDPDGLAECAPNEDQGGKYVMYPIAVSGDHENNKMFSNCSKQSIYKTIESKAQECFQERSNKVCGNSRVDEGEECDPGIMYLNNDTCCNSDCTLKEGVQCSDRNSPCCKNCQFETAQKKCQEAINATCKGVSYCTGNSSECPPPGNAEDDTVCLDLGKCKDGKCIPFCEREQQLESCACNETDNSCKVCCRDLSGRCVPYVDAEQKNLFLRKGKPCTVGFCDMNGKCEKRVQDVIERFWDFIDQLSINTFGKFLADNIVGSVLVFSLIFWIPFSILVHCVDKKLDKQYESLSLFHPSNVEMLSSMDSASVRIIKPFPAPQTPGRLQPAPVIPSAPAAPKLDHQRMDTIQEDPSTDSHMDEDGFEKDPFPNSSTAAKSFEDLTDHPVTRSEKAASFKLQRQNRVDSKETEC
Sequence of Nonstructural protein 1 (Q194T2 whole entry): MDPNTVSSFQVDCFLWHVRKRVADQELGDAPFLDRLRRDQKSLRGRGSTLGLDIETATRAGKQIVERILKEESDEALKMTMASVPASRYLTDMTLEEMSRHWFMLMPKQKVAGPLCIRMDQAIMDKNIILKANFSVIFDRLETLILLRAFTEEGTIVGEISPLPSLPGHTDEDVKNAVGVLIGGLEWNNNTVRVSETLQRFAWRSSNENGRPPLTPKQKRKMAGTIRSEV
Sequence of 72 kDa type IV collagenase (P08253 whole entry): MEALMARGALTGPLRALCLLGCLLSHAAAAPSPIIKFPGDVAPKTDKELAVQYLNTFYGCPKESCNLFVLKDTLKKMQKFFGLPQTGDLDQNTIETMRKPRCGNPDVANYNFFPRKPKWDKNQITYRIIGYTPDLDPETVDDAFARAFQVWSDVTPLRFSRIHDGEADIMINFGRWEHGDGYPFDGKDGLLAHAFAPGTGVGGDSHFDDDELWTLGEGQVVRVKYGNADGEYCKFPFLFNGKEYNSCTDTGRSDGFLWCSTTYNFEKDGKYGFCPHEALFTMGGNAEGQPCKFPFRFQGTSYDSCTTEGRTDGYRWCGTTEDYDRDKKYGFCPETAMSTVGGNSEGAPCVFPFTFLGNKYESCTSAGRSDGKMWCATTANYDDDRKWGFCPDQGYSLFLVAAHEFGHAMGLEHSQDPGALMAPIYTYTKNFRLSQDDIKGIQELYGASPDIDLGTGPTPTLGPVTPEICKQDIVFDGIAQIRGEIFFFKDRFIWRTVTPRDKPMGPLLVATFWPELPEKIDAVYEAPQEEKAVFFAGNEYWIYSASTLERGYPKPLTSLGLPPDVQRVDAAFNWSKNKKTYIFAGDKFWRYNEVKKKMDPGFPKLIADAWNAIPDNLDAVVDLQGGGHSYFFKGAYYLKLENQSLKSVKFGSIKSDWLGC
Sequence of Ion channel NompC (Q7T1G6 whole entry): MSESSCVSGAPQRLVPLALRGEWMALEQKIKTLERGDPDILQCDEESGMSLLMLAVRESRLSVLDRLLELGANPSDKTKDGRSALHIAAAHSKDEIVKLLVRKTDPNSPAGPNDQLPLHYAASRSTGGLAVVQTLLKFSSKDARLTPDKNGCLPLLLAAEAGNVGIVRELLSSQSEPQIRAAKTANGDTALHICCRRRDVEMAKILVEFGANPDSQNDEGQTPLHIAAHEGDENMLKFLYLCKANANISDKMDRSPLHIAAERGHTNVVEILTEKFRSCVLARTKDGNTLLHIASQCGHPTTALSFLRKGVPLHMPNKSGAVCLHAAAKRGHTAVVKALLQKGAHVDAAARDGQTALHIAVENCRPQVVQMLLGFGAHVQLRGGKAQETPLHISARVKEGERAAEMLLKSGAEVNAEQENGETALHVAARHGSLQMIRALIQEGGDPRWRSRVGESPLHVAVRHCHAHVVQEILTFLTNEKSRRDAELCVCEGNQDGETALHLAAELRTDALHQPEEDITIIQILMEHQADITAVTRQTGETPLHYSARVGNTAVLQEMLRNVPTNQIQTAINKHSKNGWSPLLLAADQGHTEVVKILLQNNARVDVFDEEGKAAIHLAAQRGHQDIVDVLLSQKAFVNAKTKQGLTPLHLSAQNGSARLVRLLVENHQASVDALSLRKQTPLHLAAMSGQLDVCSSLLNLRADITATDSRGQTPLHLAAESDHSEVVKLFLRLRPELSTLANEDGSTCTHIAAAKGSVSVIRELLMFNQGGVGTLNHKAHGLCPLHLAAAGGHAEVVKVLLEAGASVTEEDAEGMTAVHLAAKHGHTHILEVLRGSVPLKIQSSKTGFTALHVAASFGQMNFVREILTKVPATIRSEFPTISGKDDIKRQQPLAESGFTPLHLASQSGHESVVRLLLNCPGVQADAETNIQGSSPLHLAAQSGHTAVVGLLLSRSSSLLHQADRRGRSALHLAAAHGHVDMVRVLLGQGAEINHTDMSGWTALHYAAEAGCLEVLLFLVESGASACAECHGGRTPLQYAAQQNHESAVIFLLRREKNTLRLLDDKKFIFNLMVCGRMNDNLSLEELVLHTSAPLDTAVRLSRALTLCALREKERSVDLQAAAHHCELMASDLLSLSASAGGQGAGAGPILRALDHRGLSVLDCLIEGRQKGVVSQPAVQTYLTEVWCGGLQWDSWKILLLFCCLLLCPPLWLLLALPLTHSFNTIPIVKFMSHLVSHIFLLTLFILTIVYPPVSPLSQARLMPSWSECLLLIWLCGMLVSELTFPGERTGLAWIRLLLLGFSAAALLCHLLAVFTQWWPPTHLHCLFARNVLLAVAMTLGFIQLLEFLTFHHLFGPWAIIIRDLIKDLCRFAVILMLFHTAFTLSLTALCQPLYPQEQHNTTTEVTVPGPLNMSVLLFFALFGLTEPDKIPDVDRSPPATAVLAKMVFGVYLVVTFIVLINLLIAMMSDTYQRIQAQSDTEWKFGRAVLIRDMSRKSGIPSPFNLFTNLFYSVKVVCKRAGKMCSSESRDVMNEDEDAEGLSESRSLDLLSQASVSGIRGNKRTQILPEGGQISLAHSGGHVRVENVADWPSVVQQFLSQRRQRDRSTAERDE
Sequence of 26S proteasome non-ATPase regulatory subunit 14 (O00487 whole entry, the tested form may be a part): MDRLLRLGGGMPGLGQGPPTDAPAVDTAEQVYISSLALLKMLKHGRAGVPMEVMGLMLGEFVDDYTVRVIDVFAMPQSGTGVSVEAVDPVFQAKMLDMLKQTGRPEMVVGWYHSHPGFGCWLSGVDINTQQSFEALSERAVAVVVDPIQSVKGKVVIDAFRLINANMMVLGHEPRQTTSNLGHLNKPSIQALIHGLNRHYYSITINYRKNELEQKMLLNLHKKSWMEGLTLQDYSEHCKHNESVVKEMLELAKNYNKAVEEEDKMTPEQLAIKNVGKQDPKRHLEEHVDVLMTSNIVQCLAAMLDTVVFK

## COCC/N=c1\scc(-c2cc(OC)c(OC)c(OC)c2)n1/N=C/c1c(C)[nH]c2ccccc12
[1]
  IC50: > 100 µM (inactive)
Cells [2]
  EC50: > 350 µM (not active)
[3]
  IC50: > 69.5 µM (inactive)
Prothrombin
  IC50: 57.9 µM (active)
Cells [4]
  EC50: > 350 µM (not active)
[5]
  IC50: 76.9 µM (active)
[6]
  IC50: > 69.5 µM (inactive)
[7]
  IC50: > 69.5 µM (inactive)

## CCCCCCCCOC(=O)c1ccccc1C(=O)OCCCCCCCC
[8]
  IC50: > 20 µM (inactive)
[9]
  IC50: > 20 µM (inactive)
[10]
  IC50: > 20 µM (inactive)
[11]
  IC50: > 20 µM (inactive)
[12]
  IC50: > 20 µM (inactive)
[13]
  IC50: > 20 µM (inactive)
[14]
  IC50: > 20 µM (inactive)
[15]
  IC50: > 20 µM (inactive)

## OCCN1CCN(Cc2cc(Cl)c3cccnc3c2O)CC1
Nonstructural protein 1
  IC50: 3.93 µM (active)
[16]
  EC50: > 38 µM (not active)
[17]
  IC50: 4.09 µM (active)
[18]
  EC50: 121 µM (active)

## COc1ccccc1-c1c(C)oc2cc(OC(=O)c3ccco3)ccc2c1=O
fMet-Leu-Phe receptor
  Ki: 9 µM (active)
Protein RecA
  EC50: 23.8 µM (active)
[19]
  IC50: 1.55 µM (active)
[20]
  AC50: 21.8 µM (active)

## COc1ccc(N(CC(=O)N2CCCCC2)S(=O)(=O)c2ccccc2)c(OC)c1
Mucolipin-3
  EC50: 1.84 µM (active)
Ion channel NompC
  EC50: > 9.99 µM (not active)

## CCOc1ccc(/C=N/c2cccc3ncccc23)cc1
[17]
  IC50: > 50 µM (not active)
[21]
  IC50: > 50 µM (not active)
